According to patent US3988308A, “(Tyr^3, Tyr^14)-SRIF and intermediates” (American Home Products Corporation, priority 1974, dated 1976):
No end group written: not given here.

Columns and labels:
growth hormone (GH) = conditions: background; Brazeau et al., Science 179 (1973); U.S. Pat. No. 3,842,066; cited from earlier work
growth hormone = experiment: in vivo activity: plasma growth hormone by radioimmunoassay in nembutal-treated rats; conditions: 500 μg in PEG 400/water (1 ml) injected; rats 200-240 g; nembutal 50 mg/kg i.p. at 1 h 40 min; killed 20 min later; 19 treated rats; control average 117.9 ± 13.6
Protocol: (§1) The growth hormone inhibiting activity of the compound of Example 3 was determined by radioimmunoassay in a rat pituitary cell culture system as described by Vale et al, Endocrinology 91, pp 562 (1972) and Grant et al, Biochemical and Biophysical Research Communications 51, pp 100-106 (1973). The compound of Example 3 was tested at 10 ng/ml, 100 ng/ml and 1000ng/ml and was active at these concentrations in inhibiting growth hormone release. The in vivo activity of the compound of Example 3 was determined by dissolving 500 μg of this compound in a mixture of polyethylene glycol (PEG 400) and water (1 ml) and the mixture was injected in rats weighing 200-240 g. Control rats were injected with 80% PEG 400. One hour and forty minutes later the rats were injected i.p. with nembutal at 50 mg/kg. Twenty minutes after the nembutal injection the rats were killed and their blood plasmas were assayed for growth hormone by radioimmunoassay.
The average of 19 treated rats was 80.1 ± 9.0 × 10^-^9 g GH/ml and the average of 11 control rats was 117.9 ± 13.6 × 10^^-9 g GH/ml.

[1] = system: growth hormone release in rat pituitary cell culture; experiment: growth hormone inhibiting activity by radioimmunoassay in a rat pituitary cell culture system; assay type: cell-based; conditions: tested at 10 ng/ml, 100 ng/ml and 1000ng/ml
Protocol: as §1

Molecule	inhibition of secretion/release of growth hormone (somatotropin) (growth hormone (GH))	blood plasma growth hormone, average of treated rats (growth hormone)	inhibiting growth hormone release [1]
C[C@H](N)C(=O)NCC(=O)N[C@H]1CSSC[C@@H](C(=O)O)NC(=O)[C@H](CO)NC(=O)[C@H]([C@@H](C)O)NC(=O)[C@H](Cc2ccccc2)NC(=O)[C@H]([C@@H](C)O)NC(=O)[C@H](CCCCN)NC(=O)[C@H](Cc2c[nH]c3ccccc23)NC(=O)[C@H](Cc2ccccc2)NC(=O)[C@H](Cc2ccccc2)NC(=O)[C@H](CC(N)=O)NC(=O)[C@H](CCCCN)NC1=O [Somatostatin]	inhibit the secretion of the hormone somatotropin	–	–
(Ala^3,Ala^14)-SRIF: somatostatin analog described in U.S. Pat. No. 3,842,066 (AGAKNFFWKTFTSA; Somatostatin-14; UniProt P61278 103-116, looked up, variant C3A C14A)	inhibiting the release of growth hormone	–	–
AGYKNFFWKTFTSY [Example 3, L-alanylglycyl-L-tyrosyl-L-lysyl-L-asparaginyl-L-phenylalanyl-L-phenylalanyl-L-tryptophyl-L-lysyl-L-threonyl-L-phenylalanyl-L-threonyl-L-seryl-L-tyrosine]	–	80.1 ± 9.0 × 10^-9 g GH/ml	active
H-Ala-Gly-Cys-Lys-Asn-Phe-Phe-Trp-Lys-Thr-Phe-Thr-Ser-Cys-OH (H-AGCKNFFWKTFTSC-OH; ends and bridges not checked) [linear form of somatostatin, synthesized by solid phase methodology]	same biological activity as the somatostatin obtained from a natural source	–	–
